Experiment [1] has as its target T1, Cyclin-dependent kinase-like 5 (Homo sapiens) (UniProt O76039).
T1 sequence (whole entry): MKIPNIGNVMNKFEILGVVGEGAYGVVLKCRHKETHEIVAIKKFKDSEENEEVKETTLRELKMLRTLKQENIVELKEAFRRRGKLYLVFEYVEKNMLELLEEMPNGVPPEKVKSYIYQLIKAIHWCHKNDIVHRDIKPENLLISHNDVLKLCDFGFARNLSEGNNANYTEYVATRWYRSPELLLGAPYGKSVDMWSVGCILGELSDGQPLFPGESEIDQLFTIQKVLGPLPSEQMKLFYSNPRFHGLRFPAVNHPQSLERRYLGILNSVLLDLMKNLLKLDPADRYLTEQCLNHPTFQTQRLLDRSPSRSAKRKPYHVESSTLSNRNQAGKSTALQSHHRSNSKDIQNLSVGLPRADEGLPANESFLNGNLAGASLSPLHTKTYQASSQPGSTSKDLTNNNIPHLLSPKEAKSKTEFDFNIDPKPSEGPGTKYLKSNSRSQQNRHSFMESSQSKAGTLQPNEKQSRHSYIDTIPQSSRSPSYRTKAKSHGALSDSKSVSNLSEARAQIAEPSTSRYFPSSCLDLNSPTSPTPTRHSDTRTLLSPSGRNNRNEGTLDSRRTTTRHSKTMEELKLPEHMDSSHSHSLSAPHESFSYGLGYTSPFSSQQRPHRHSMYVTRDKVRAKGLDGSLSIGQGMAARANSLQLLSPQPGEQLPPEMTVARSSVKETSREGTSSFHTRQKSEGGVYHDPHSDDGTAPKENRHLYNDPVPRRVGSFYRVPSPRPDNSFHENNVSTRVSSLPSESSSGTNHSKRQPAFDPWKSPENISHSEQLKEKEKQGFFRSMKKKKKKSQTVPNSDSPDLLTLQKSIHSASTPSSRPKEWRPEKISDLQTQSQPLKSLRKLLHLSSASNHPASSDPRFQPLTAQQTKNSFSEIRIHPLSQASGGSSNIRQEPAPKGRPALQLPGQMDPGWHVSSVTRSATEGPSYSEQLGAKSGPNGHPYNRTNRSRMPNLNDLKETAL
Put plainly: Selectivity interaction (Ambit KINOMEscan and KiNATiv profiling in Jurkat cells) EUB0000090b CDKL5. The format is cell-based. The settings on record: at 1 µM.

Experiment [2] concerns the target T2, Ephrin type-A receptor 8 (Homo sapiens) (UniProt P29322).
T2 sequence (whole entry): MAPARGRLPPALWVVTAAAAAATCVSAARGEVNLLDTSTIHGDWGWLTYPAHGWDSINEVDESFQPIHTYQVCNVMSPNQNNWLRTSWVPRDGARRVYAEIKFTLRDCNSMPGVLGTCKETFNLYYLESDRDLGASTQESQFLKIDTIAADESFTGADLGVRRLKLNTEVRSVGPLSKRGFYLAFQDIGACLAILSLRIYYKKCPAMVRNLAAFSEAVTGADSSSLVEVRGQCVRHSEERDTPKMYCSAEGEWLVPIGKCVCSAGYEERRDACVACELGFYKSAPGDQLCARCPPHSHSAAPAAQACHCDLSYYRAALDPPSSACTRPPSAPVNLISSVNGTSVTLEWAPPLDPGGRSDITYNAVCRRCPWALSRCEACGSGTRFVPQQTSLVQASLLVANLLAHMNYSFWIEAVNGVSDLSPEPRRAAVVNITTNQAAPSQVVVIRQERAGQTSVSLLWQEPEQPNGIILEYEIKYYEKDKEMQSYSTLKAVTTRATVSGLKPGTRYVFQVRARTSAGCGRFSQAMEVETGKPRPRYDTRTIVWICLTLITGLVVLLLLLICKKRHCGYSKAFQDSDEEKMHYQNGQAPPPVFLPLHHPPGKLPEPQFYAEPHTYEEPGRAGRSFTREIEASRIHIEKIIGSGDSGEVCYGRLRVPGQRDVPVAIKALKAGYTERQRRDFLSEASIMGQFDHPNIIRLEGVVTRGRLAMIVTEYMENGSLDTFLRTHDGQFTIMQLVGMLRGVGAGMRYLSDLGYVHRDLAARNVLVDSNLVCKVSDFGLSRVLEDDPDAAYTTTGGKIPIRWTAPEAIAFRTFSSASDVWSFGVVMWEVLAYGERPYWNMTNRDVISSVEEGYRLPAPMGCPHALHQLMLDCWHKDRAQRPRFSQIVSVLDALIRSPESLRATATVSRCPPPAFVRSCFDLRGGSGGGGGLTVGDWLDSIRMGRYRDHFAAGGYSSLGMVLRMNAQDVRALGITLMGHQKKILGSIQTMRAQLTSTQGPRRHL
Put plainly: Selectivity interaction (Ambit KINOMEscan and KiNATiv profiling in Jurkat cells) EUB0000090b EPHA8. Type of experiment: cell-based. Conditions: at 1 µM.

The target in experiment [3] is High affinity nerve growth factor receptor (Homo sapiens, UniProt P04629). Put plainly: Selectivity interaction (KinomeScan (DiscoverX)) EUB0001049a NTRK1. Conditions: at 1 µM.
Sequence of High affinity nerve growth factor receptor (P04629 33-796 limits assumed): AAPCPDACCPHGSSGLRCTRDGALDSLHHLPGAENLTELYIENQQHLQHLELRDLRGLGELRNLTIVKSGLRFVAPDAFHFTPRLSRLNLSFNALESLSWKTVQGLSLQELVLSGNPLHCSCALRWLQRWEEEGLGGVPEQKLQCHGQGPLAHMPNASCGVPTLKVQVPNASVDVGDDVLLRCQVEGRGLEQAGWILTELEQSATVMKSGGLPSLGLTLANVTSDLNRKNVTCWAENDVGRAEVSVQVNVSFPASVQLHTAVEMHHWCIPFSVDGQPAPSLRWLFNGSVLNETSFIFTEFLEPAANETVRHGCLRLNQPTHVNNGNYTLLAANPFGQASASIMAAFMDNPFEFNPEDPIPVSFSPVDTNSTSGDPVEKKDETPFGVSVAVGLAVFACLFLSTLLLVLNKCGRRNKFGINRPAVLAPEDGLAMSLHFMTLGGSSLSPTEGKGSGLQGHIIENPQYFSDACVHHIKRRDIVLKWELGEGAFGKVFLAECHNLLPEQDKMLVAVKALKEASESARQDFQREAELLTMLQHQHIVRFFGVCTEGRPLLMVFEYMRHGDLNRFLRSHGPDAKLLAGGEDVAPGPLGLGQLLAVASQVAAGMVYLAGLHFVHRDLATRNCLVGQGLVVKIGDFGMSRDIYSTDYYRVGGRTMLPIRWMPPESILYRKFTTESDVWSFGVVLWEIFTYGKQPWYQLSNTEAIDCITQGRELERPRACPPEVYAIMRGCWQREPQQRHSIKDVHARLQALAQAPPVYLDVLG
The target in experiment [4] is Receptor-type tyrosine-protein kinase FLT3 (Homo sapiens) (UniProt P36888). Nature of the experiment: Selectivity interaction (ProQinase) EUB0000171b FLT3. The settings on record: at 1 µM.
Sequence of Receptor-type tyrosine-protein kinase FLT3 (Homo sapiens) (P36888 whole entry): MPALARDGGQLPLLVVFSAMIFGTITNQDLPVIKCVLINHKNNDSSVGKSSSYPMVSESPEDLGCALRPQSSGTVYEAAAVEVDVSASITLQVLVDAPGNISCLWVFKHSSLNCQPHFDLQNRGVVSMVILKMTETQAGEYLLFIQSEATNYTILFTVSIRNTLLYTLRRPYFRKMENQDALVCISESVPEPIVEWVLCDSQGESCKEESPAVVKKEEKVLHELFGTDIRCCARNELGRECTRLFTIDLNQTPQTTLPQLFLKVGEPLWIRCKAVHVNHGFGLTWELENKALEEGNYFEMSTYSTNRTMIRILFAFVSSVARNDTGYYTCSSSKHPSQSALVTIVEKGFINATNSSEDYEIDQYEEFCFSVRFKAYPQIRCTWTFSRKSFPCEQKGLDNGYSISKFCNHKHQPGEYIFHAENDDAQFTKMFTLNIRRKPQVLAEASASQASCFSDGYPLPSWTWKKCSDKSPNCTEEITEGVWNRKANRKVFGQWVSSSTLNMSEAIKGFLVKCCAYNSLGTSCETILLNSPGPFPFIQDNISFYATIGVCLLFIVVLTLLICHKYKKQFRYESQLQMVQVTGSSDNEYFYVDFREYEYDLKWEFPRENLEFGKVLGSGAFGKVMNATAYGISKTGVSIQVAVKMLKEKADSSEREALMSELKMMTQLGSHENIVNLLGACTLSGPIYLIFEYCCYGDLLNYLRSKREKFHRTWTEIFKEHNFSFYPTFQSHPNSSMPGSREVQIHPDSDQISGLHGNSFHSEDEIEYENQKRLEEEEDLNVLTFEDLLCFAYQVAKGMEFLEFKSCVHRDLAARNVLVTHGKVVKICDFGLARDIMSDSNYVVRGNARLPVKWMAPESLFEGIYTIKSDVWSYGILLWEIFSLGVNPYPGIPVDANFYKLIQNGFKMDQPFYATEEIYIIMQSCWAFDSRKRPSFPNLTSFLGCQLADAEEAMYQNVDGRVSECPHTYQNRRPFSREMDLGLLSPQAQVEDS
Experiment [5] addresses Serine/threonine-protein kinase MARK2 (Homo sapiens) (UniProt Q7KZI7). Nature of the experiment: Selectivity interaction (KinomeScan (DiscoverX)) EUB0000618a MARK2. Conditions: at 10 µM.
Experiment [6] has as its target T3, Receptor-interacting serine/threonine-protein kinase 4 (Homo sapiens) (UniProt P57078).
T3 sequence (whole entry): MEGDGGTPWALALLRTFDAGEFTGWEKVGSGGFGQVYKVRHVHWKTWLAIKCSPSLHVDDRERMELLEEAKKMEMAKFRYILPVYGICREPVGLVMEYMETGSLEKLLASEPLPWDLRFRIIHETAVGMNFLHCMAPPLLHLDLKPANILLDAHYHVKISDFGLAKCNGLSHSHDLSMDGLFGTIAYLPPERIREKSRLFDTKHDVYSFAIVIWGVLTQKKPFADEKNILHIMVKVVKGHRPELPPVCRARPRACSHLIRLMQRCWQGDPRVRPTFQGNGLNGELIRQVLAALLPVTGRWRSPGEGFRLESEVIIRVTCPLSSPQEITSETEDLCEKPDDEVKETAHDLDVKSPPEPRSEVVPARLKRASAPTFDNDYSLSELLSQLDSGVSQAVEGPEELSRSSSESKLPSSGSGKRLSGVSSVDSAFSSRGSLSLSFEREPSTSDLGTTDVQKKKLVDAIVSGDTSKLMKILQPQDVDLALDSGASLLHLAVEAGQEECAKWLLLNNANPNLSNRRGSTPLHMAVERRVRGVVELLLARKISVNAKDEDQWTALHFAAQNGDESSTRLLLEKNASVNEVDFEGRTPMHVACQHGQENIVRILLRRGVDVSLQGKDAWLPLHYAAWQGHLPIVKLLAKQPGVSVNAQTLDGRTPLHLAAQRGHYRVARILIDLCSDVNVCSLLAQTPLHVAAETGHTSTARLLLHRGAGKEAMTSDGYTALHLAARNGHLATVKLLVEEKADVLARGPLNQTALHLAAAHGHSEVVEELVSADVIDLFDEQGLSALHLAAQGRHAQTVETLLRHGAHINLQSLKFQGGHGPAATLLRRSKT
Nature of the experiment: Selectivity interaction (KinomeScan (DiscoverX)) EUB0000618a RIPK4. The settings on record: at 10 µM.

Data on 4 molecules can be found in ChEMBL document CHEMBL5465560, “Selectivity Literature for EUbOPEN Chemogenomic Library” (2024).

Structures are written as SMILES.

Sequence of Serine/threonine-protein kinase MARK2 (Homo sapiens) (Q7KZI7 whole entry): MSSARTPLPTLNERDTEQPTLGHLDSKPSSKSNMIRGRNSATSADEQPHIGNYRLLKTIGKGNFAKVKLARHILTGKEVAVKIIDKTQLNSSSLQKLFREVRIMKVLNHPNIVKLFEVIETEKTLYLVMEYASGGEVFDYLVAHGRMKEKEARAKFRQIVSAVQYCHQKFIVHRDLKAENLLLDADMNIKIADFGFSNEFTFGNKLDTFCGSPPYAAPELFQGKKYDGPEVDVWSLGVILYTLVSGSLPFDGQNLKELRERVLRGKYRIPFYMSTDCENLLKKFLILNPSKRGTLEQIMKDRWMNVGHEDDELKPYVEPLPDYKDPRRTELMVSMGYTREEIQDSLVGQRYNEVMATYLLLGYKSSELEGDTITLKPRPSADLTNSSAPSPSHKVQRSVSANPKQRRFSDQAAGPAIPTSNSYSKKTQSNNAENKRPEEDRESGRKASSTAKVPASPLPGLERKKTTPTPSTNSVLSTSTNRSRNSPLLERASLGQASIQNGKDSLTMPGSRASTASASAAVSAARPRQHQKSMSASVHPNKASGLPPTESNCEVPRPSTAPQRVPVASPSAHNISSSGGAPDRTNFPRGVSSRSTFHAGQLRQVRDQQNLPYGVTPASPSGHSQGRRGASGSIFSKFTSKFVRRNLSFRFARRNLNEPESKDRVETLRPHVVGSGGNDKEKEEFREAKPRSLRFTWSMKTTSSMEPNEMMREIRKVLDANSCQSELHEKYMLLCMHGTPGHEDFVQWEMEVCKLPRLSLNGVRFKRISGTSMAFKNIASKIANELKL

With `CN(C)C/C=C/C(=O)Nc1ccc(C(=O)N2CCCC(Nc3ncc(Cl)c(-c4c[nH]c5ccccc45)n3)C2)cc1` (stereo unspecified), the % of control in experiment [1] was 100%; in experiment [2] it was 89%. In experiment [3], `COc1cc(Nc2nc(C)cc(-c3cnn4nc(OC)ccc34)n2)cc(C(F)(F)F)c1` returned a % of control of 100%. For the molecule `C=CC(=O)Nc1cccc(C(=O)Nc2ccc(Nc3cc(-c4[nH]c(SC)nc4C)ccn3)cc2)c1`, in experiment [4], the % of control worked out at 94%.

Take `O[C@H]1CC[C@H](Nc2ncc3nc(Nc4c(F)cc(F)cc4F)n([C@H]4CCOC4)c3n2)CC1`: the figures for the % of control in experiment [5] and in experiment [6] were 100% and 88%, respectively.
